Laboratory results as given in patent US9840513B2 (AbbVie S.à.r.l., priority 2015, dated 2017).

Target: T1, F508delCFTR cell surface expression in CFBE41o-F508delCFTR-HRP cells (Homo sapiens, UniProt P13569, DEL508-508)
T1 construct: fused on or other part: Horseradish peroxidase (HRP) reporter inserted in the fourth exofacial (extracellular) loop of CFTR; expression is doxycycline-inducible
Experiment: Cell Surface Expression-Horse Radish Peroxidase (CSE-HRP) Assay
Assay type: cell-based
Details: for EC50: CFBE41o-F508delCFTR-HRP cells, 18-24 hours at 33° C., 8-point curve, highest concentration 20 μM; for Maximum % activity (%): maximum at any tested concentration, normalized to on-plate positive control (3 μM)
Summary of the method: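 CFBE41o- cells with HRP-tagged F508delCFTR, expression induced by 0.5 μg/mL doxycycline for 72 h at 37 °C, then compound for 18-24 h at 33 °C (8-point, 3-fold, top 20 μM). Surface HRP measured by luminol luminescence; % activity normalised to 3 μM positive-control corrector; EC50 from variable-slope sigmoidal fit, three replicate plates.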

T1 sequence (P13569 with tags, fused parts or gaps DEL508-508 limits assumed): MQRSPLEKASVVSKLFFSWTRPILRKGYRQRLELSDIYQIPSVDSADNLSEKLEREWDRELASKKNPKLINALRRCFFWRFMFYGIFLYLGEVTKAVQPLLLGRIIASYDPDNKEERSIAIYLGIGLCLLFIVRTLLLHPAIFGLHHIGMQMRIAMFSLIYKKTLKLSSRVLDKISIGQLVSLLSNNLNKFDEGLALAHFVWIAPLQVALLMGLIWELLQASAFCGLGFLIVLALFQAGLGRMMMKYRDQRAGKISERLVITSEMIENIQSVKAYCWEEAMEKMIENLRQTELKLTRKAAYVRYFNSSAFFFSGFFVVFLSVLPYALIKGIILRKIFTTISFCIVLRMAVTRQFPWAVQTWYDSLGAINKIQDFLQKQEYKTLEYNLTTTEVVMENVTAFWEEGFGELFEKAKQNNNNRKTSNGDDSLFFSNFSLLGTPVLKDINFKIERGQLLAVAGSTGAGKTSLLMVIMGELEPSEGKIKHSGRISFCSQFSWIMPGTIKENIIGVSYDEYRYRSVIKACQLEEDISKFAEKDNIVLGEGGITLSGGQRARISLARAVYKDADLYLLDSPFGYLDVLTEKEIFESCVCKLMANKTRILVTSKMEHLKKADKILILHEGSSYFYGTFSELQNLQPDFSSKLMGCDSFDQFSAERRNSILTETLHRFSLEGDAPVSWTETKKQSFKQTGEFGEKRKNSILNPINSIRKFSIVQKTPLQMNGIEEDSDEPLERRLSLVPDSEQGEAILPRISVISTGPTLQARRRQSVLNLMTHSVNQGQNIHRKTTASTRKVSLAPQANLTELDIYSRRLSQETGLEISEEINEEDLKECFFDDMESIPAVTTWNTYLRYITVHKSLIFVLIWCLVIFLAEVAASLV
T1 sequence (P13569 919-1480 limits assumed, stated change not applied): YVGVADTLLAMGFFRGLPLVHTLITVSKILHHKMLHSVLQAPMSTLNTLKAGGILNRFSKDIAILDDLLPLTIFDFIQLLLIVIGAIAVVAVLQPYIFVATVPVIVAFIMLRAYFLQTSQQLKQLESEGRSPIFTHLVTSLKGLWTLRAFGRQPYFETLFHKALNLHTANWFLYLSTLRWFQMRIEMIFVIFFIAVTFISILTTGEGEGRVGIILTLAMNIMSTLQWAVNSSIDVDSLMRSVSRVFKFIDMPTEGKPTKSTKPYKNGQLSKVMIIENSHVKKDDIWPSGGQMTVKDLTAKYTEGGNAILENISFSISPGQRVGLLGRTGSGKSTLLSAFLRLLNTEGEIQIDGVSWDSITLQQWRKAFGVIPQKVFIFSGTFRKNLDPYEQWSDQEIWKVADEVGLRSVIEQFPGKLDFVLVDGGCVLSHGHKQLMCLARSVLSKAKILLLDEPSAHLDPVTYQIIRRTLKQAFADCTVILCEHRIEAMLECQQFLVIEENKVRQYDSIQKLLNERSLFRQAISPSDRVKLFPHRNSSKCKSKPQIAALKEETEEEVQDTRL

Molecule | EC50 [nM] | Maximum % activity (%)
O=C(O)c1ccc([C@@H]2C[C@H](NC(=O)C3(c4ccc5c(c4)OC(F)(F)O5)CC3)c3ccccc3N2)cc1 (single isomer, unassigned) [Example 48] | 2770 | 27
C[C@]1(C(=O)Nc2cc(Br)cn(-c3ccc(C(=O)O)cc3)c2=O)COc2cc3c(cc21)OC(F)(F)O3 [Example 97, 4-[5-bromo-3-{[(7R)-2,2-difluoro-7-methyl-6,7-dihydro-2H-furo[2,3-f][1,3]benzodioxole-7-carbonyl]amino}-2-oxopyridin-1(2H)-yl]benzoic acid] | 480 | 148
COc1ccc2c(c1)O[C@@H](c1cccc(C(=O)O)c1)C[C@H]2NC(=O)[C@@]1(C)COc2cc3c(cc21)OC(F)(F)O3 [Example 14, 3-[(2R,4R)-4-{[(7R)-2,2-difluoro-7-methyl-6,7-dihydro-2H-furo[2,3-f][1,3]benzodioxole-7-carbonyl]amino}-7-methoxy-3,4-dihydro-2H-1-benzopyran-2-yl]benzoic acid] | 380 | 187
CC1(C)OC[C@@H](Cn2nc(-c3ccccc3)cc(NC(=O)C3(C)COc4cc5c(cc43)OC(F)(F)O5)c2=O)O1 (stereo partly drawn) [Example 24, N-(2-{[(4R)-2,2-dimethyl-1,3-dioxolan-4-yl]methyl}-3-oxo-6-phenyl-2,3-dihydropyridazin-4-yl)-2,2-difluoro-7-methyl-6,7-dihydro-2H-furo[2,3-f][1,3]benzodioxole-7-carboxamide] | 1180 | 70
COc1ccc2c(c1)O[C@@H](c1ccc(C(=O)O)cc1)C[C@H]2NC(=O)C1(C)COc2cc3c(cc21)OC(F)(F)O3 (stereo partly drawn) [Example 16, 4-{(2R,4R)-4-[(2,2-difluoro-7-methyl-6,7-dihydro-2H-furo[2,3-f][1,3]benzodioxole-7-carbonyl)amino]-7-methoxy-3,4-dihydro-2H-1-benzopyran-2-yl}benzoic acid] | 60 | 150
Cc1ccc(NC(=O)C2(C)CCc3cc4c(cc32)OC(F)(F)O4)nc1-c1cccc(C(=O)O)c1 (stereo not drawn) [Example 51, 3-{6-[(2,2-difluoro-5-methyl-6,7-dihydro-2H,5H-indeno[5,6-d][1,3]dioxole-5-carbonyl)amino]-3-methylpyridin-2-yl}benzoic acid] | 930 | 153
CCOC(=O)C1([C@@H]2C[C@H](NC(=O)[C@@]3(C)COc4cc5c(cc43)OC(F)(F)O5)c3ccc(OC(F)(F)F)cc3O2)CC1 [Example 165, ethyl 1-[(2S,4S)-4-{[(7R)-2,2-difluoro-7-methyl-6,7-dihydro-2H-furo[2,3-f][1,3]benzodioxole-7-carbonyl]amino}-7-(trifluoromethoxy)-3,4-dihydro-2H-1-benzopyran-2-yl]cyclopropane-1-carboxylate] | 2640 | 85
CNC(=O)c1cccc(-c2nc(NC(=O)C3(C)COc4cc5c(cc43)OC(F)(F)O5)ccc2C)c1 (stereo not drawn) [Example 76, 2,2-difluoro-7-methyl-N-{5-methyl-6-[3-(methylcarbamoyl)phenyl]pyridin-2-yl}-6,7-dihydro-2H-furo[2,3-f][1,3]benzodioxole-7-carboxamide] | 720 | 111
(7R)—N-[5-(3R,4R)-dihydroxypyrrolidin-1-yl)pyrazin-2-yl]-2,2-difluoro-7-methyl-6,7-dihydro-2H-furo[2,3-f][1,3]benzodioxole-7-carboxamide and (7R)—N-[5-(3S,4S)-dihydroxypyrrolidin-1-yl)pyrazin-2-yl]-2,2-difluoro-7-methyl-6,7-dihydro-2H-furo[2,3-f][1,3]benzodioxole-7-carboxamide [Example 121] | 11100 | 23
C[C@]1(C(=O)Nc2cccc(N3CC4CCCC4(C(=O)O)C3)n2)COc2cc3c(cc21)OC(F)(F)O3 (stereo partly drawn) [Example 117, 2-(6-{[(7R)-2,2-difluoro-7-methyl-6,7-dihydro-2H-furo[2,3-f][1,3]benzodioxole-7-carbonyl]amino}pyridin-2-yl)hexahydrocyclopenta[c]pyrrole-3a(1H)-carboxylic acid] | 1390 | 147
Cc1ccc(NC(=O)C2(C)COc3cc4c(cc32)OC(F)(F)O4)cc1-c1cccc(C(=O)O)c1 (stereo not drawn) [Example 60, 5′-[(2,2-difluoro-7-methyl-6,7-dihydro-2H-furo[2,3-f][1,3]benzodioxole-7-carbonyl)amino]-2′-methyl[1,1′-biphenyl]-3-carboxylic acid] | 630 | 152
CC1(C(=O)Nc2cccc(-c3ccccc3)n2)COc2cc3c(cc21)OC(F)(F)O3 (stereo not drawn) [Example 55, 2,2-difluoro-7-methyl-N-(6-phenylpyridin-2-yl)-6,7-dihydro-2H-furo[2,3-f][1,3]benzodioxole-7-carboxamide] | 6620 | 159
C[C@]1(C(=O)Nc2cccc(-c3cc(C(=O)O)ccc3F)n2)COc2cc3c(cc21)OC(F)(F)O3 [Example 128, 3-(6-{[(7R)-2,2-difluoro-7-methyl-6,7-dihydro-2H-furo[2,3-f][1,3]benzodioxole-7-carbonyl]amino}pyridin-2-yl)-4-fluorobenzoic acid] | 4960 | 172
COc1ccc2c(c1)O[C@@H](c1nnn[nH]1)C[C@H]2NC(=O)[C@@]1(C)COc2cc3c(cc21)OC(F)(F)O3 [Example 202, (7R)-2,2-difluoro-N-[(2R,4R)-7-methoxy-2-(1H-tetrazol-5-yl)-3,4-dihydro-2H-1-benzopyran-4-yl]-7-methyl-6,7-dihydro-2H-furo[2,3-f][1,3]benzodioxole-7-carboxamide] | > 20000 | 8

Next, values leading:

EC50 [nM] | Maximum % activity (%) | Molecule
50 | 114 | CCN(CCO)C(=O)c1ccc([C@H]2C[C@@H](NC(=O)[C@@]3(C)COc4cc5c(cc43)OC(F)(F)O5)c3ccc(OC)cc3O2)nc1 [Example 235, 6-[(2R,4R)-4-{[(7R)-2,2-difluoro-7-methyl-6,7-dihydro-2H-furo[2,3-f][1,3]benzodioxole-7-carbonyl]amino}-7-methoxy-3,4-dihydro-2H-1-benzopyran-2-yl]-N-ethyl-N-(2-hydroxyethyl)pyridine-3-carboxamide]
60 | 172 | C[C@]1(C(=O)N[C@@H]2C[C@H]([C@H]3CC[C@H](C(=O)N4CCOCC4)CC3)Oc3cc(OC(F)(F)F)ccc32)COc2cc3c(cc21)OC(F)(F)O3 [Example 271, (7R)-2,2-difluoro-7-methyl-N-[(2R,4R)-2-[trans-4-(morpholine-4-carbonyl)cyclohexyl]-7-(trifluoromethoxy)-3,4-dihydro-2H-1-benzopyran-4-yl]-6,7-dihydro-2H-furo[2,3-f][1,3]benzodioxole-7-carboxamide]
350 | 69 | CC1(C)OC[C@@H](Cn2c3c(c4cc(NC(=O)[C@@]5(C)COc6cc7c(cc65)OC(F)(F)O7)c(F)cc42)C(C)(C)OCC3(C)C)O1 [Example 207, (7R)—N-(5-{[(4R)-2,2-dimethyl-1,3-dioxolan-4-yl]methyl}-7-fluoro-1,1,4,4-tetramethyl-1,3,4,5-tetrahydropyrano[4,3-b]indol-8-yl)-2,2-difluoro-7-methyl-6,7-dihydro-2H-furo[2,3-f][1,3]benzodioxole-7-carboxamide]
70 | 157 | COc1ccc2c(c1)O[C@@H](c1ccc(C(=O)N3CCC(F)(F)CC3)cc1)C[C@H]2NC(=O)[C@@]1(C)COc2cc3c(cc21)OC(F)(F)O3 [Example 223, (7R)—N-{(2R,4R)-2-[4-(4,4-difluoropiperidine-1-carbonyl)phenyl]-7-methoxy-3,4-dihydro-2H-1-benzopyran-4-yl}-2,2-difluoro-7-methyl-6,7-dihydro-2H-furo[2,3-f][1,3]benzodioxole-7-carboxamide]
120 | 186 | CC(C)(CO)NC(=O)[C@H]1CC[C@H]([C@H]2C[C@@H](NC(=O)[C@@]3(C)COc4cc5c(cc43)OC(F)(F)O5)c3ccc(OC(F)(F)F)cc3O2)CC1 [Example 268, (7R)-2,2-difluoro-N-[(2R,4R)-2-{trans-4-[(1-hydroxy-2-methylpropan-2-yl)carbamoyl]cyclohexyl}-7-(trifluoromethoxy)-3,4-dihydro-2H-1-benzopyran-4-yl]-7-methyl-6,7-dihydro-2H-furo[2,3-f][1,3]benzodioxole-7-carboxamide]
30 | 113 | COc1ccc2c(c1)O[C@@H](c1ccc(C(=O)NC(C)(C)CO)cn1)C[C@H]2NC(=O)[C@@]1(C)COc2cc3c(cc21)OC(F)(F)O3 [Example 215, 6-[(2R,4R)-4-{[(7R)-2,2-difluoro-7-methyl-6,7-dihydro-2H-furo[2,3-f][1,3]benzodioxole-7-carbonyl]amino}-7-methoxy-3,4-dihydro-2H-1-benzopyran-2-yl]-N-(1-hydroxy-2-methylpropan-2-yl)pyridine-3-carboxamide]
80 | 125 | COc1ccc2c(c1)O[C@@H](c1ccc(C(=O)NC3c4ccccc4CC3O)cn1)C[C@H]2NC(=O)[C@@]1(C)COc2cc3c(cc21)OC(F)(F)O3 (stereo partly drawn) [Example 221, 6-[(2R,4R)-4-{[(7R)-2,2-difluoro-7-methyl-6,7-dihydro-2H-furo[2,3-f][1,3]benzodioxole-7-carbonyl]amino}-7-methoxy-3,4-dihydro-2H-1-benzopyran-2-yl]-N-(2-hydroxy-2,3-dihydro-1H-inden-1-yl)pyridine-3-carboxamide]
